In ChEMBL document CHEMBL3392967, “Phosphatidylinositol 3-Kinase (PI3K) and phosphatidylinositol 3-kinase-related kinase (PIKK) inhibitors: importance of the morpholine ring” (J Med Chem, 2015):
“And” between values parts separate entries of the source, which are not always exact repeats. Equal values may be shown once. Each block holds one compound with its values, some of them ahead of it.

Columns and labels:
[1] = molecular target: T1, DNA-dependent protein kinase catalytic subunit (Homo sapiens, UniProt P78527); experiment: Inhibition of DNA-PK (unknown origin)
T1 sequence (P78527 whole entry, canonical isoform): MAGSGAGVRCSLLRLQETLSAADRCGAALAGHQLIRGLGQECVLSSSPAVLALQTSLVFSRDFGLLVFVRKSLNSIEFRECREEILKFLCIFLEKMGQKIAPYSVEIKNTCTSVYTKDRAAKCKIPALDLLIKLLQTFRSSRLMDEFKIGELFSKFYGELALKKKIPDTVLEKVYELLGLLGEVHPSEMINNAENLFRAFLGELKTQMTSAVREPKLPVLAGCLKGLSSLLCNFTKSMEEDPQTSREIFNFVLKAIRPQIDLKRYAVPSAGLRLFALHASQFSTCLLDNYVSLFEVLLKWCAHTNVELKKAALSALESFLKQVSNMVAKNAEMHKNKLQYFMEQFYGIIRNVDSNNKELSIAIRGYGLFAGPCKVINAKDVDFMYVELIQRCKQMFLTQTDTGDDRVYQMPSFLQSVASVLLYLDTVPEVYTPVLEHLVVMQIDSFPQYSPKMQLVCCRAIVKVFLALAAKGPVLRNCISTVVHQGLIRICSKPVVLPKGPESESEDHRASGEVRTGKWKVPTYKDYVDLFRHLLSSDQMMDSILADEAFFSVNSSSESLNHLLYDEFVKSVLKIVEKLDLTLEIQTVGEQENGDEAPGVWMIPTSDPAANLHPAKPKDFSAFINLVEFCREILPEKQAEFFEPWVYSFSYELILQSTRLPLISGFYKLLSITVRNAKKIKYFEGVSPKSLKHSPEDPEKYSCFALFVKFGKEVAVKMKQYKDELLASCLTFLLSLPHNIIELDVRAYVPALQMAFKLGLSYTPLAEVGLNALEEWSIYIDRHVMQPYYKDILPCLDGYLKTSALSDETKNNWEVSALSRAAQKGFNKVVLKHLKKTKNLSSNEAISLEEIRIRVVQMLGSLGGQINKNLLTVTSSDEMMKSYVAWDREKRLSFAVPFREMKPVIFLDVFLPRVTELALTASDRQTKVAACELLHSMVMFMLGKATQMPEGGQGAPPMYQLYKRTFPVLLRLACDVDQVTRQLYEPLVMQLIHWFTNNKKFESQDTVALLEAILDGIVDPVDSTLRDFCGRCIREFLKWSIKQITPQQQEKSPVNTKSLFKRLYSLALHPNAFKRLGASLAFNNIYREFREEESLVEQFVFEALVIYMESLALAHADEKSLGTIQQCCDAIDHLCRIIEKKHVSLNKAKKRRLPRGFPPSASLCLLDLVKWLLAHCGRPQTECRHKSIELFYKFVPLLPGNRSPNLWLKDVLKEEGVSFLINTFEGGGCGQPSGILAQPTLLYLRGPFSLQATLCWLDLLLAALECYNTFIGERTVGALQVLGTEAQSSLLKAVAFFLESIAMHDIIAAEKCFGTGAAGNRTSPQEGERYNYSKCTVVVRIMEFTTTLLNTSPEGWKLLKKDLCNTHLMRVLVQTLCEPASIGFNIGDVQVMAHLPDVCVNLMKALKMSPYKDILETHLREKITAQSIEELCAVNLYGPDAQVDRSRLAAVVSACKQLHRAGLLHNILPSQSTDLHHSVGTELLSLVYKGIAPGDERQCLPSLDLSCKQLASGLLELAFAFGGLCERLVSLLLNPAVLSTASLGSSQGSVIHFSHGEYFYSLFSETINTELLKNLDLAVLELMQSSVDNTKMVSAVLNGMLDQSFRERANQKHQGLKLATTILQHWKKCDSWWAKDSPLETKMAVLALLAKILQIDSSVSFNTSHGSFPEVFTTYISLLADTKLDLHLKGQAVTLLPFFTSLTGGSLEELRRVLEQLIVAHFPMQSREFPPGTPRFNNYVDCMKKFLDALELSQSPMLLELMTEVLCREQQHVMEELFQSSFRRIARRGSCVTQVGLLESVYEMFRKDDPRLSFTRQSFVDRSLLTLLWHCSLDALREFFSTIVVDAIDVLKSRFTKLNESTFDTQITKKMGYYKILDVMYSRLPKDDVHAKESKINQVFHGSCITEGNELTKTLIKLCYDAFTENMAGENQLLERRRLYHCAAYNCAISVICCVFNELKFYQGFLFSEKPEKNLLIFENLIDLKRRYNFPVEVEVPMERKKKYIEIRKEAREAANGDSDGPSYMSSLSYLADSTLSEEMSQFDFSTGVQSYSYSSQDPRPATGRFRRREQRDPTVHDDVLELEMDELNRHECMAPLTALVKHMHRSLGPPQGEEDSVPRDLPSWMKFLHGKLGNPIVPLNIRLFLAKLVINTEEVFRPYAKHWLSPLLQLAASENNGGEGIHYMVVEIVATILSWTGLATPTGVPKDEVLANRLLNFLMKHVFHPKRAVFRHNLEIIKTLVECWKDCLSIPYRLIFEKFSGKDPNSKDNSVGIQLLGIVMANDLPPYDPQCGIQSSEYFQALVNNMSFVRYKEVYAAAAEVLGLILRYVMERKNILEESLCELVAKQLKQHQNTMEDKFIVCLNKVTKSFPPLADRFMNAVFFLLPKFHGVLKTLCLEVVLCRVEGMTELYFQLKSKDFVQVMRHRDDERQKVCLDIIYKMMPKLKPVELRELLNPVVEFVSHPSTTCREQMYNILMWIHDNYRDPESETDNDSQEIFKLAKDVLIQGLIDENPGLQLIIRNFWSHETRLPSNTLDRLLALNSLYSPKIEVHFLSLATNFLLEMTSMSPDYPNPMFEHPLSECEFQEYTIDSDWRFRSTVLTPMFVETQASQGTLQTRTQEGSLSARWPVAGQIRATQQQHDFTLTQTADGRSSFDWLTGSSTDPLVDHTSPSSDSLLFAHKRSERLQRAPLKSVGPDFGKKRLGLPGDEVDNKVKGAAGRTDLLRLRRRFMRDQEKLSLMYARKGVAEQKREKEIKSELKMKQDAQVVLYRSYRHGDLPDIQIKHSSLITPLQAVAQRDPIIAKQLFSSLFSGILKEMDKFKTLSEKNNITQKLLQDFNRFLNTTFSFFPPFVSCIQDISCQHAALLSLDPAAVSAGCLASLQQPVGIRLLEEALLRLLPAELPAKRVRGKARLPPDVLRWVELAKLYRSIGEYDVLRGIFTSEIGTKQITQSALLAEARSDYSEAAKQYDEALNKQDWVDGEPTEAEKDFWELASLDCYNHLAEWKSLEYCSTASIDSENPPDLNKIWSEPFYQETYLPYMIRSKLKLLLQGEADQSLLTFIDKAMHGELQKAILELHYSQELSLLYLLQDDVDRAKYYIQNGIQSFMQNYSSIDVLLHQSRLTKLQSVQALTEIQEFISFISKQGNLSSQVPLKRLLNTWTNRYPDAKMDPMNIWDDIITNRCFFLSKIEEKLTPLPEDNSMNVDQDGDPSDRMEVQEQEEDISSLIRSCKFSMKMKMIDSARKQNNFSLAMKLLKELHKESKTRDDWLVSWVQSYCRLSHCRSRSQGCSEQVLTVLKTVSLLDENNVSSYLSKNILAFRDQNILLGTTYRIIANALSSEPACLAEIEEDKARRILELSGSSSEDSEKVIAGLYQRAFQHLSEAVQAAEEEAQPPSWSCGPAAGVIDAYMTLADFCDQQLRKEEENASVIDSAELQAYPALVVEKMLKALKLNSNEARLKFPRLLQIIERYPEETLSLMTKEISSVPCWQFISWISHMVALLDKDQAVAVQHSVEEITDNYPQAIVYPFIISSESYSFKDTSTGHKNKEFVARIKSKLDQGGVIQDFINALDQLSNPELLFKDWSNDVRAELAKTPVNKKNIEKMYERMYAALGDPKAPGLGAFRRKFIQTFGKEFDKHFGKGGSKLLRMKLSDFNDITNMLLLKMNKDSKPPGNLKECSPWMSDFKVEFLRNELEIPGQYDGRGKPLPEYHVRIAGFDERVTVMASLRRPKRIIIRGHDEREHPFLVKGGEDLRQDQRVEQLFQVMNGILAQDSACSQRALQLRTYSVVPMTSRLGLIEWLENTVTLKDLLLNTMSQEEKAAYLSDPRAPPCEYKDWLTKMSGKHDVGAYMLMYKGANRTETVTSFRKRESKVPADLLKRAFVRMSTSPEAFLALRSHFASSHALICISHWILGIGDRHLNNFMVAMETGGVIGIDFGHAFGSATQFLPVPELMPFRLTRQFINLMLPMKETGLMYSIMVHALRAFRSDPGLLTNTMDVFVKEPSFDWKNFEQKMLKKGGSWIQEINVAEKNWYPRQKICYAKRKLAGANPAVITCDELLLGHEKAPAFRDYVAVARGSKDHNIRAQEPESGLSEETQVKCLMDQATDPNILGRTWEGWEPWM

[2] = molecular target: Phosphatidylinositol 4,5-bisphosphate 3-kinase catalytic subunit alpha isoform (Homo sapiens, UniProt P42336)
Sequence of Phosphatidylinositol 4,5-bisphosphate 3-kinase catalytic subunit alpha isoform (P42336 whole entry, canonical isoform): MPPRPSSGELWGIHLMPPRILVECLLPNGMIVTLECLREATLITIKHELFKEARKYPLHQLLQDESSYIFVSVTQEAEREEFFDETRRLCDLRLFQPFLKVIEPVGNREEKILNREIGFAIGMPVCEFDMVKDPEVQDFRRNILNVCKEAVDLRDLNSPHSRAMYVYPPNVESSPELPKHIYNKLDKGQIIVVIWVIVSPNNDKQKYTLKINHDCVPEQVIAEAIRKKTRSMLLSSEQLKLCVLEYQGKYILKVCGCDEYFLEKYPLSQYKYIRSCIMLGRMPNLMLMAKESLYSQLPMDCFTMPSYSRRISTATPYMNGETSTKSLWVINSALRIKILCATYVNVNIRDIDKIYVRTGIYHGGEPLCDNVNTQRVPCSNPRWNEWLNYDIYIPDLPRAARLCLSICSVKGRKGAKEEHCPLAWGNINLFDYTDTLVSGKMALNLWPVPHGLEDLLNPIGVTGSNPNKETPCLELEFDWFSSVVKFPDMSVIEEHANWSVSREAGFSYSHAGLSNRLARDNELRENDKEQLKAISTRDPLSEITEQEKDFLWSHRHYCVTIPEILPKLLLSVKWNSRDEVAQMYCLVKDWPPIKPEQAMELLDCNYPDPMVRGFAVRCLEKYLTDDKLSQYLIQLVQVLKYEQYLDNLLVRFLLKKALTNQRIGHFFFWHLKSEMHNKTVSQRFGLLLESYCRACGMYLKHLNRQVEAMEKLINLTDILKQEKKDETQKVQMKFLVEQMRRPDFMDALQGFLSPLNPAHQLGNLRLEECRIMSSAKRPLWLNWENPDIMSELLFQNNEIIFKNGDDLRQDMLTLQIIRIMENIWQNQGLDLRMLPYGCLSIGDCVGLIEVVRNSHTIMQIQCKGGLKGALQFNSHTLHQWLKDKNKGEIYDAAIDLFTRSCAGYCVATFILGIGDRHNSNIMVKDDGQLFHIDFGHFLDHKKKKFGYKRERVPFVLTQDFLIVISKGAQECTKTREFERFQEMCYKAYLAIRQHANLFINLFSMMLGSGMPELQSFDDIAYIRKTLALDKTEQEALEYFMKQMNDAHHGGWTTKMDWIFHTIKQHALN

[3] = molecular target: T1, DNA-dependent protein kinase catalytic subunit; experiment: Inhibition of DNA-PK purified from HeLa nuclear extracts assessed as EPPLSQEAFADLWKKR peptide substrate phosphorylation
[4] = molecular target: Serine/threonine-protein kinase mTOR (Homo sapiens, UniProt P42345); experiment: Inhibition of mTOR (unknown origin)
[5] = Oral bioavailability in mouse; type: ADME, organism-based; details: in vivo
[6] = system: MDA-MB-361; experiment: cells; details: Homo sapiens
[7] = Half life in mouse plasma at 25 mg/kg single dose; type: ADME, organism-based; parameters: dose 25 mg/kg
[8] = molecular target: Serine/threonine-protein kinase mTOR (Rattus norvegicus, UniProt P42346); experiment: Inhibition of rat derived mTOR using [gamma32P]ATP
[9] = molecular target: T2, Phosphatidylinositol 4,5-bisphosphate 3-kinase catalytic subunit delta isoform (Homo sapiens, UniProt O00329)
T2 sequence (O00329 whole entry): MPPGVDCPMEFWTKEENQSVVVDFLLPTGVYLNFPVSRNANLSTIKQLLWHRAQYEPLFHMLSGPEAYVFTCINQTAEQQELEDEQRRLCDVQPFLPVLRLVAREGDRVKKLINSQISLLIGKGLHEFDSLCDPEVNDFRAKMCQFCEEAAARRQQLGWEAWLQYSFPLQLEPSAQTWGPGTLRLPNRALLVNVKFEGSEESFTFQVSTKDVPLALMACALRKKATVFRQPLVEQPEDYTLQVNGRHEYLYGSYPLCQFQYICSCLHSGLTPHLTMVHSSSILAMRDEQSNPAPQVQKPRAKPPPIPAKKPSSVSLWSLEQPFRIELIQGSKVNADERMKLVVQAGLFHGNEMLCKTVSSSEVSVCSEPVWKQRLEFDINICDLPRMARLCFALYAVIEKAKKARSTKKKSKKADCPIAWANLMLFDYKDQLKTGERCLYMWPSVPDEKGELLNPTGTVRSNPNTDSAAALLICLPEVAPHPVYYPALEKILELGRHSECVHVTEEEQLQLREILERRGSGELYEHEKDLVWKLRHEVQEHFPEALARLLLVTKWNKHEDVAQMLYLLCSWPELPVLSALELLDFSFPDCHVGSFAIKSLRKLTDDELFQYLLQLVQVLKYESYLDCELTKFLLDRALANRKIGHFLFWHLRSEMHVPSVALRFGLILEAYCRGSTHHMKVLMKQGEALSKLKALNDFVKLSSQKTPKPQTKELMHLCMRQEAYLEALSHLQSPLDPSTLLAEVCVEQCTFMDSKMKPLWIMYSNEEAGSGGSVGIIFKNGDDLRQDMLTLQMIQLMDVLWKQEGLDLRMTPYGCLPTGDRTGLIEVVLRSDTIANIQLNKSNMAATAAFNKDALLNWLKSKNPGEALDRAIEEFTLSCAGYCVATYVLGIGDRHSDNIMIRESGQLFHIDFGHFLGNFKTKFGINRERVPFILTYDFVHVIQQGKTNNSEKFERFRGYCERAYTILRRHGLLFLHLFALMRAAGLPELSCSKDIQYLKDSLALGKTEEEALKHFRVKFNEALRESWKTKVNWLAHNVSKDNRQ

[10] = Inhibition of rapamycin-insensitive mTORC2 (unknown origin); parameters: species or system Homo sapiens
[11] = Oral bioavailability in BALB/C mouse; type: ADME, organism-based; details: in vivo
[12] = Half life in BALB/C mouse; type: ADME, organism-based; details: in vivo

IC50 [1]: 1200 nM
SMILES: COc1ccc2oc(=O)cc(N3CCOCC3)c2c1

IC50 [1]: 41 nM
SMILES: O=c1cc(N2CCOCC2)oc2c(-c3cccc4c3oc3ccccc34)cccc12

IC50 [2]: > 1000 nM
SMILES: Cc1cc(C(C)Nc2ccccc2)c2nc(N3CCOCC3)cc(=O)n2c1 (stereo not drawn)

IC50 [3]: 34 nM
SMILES: O=c1cc(-c2ccccc2)oc2cc(N3CCOCC3)cc(O)c12

IC50 [1]: 13 nM
SMILES: O=c1cc(N2CCOCC2)nc2c(-c3cccc4c3sc3ccccc34)cccn12

IC50 [1]: 5 nM and 14 nM
SMILES: Cc1ccc2c(=O)cc(N3CCOCC3)oc2c1-c1cccc2c1sc1ccccc12

IC50 [3]: 35 nM
SMILES: O=C(c1ccc(O)cc1)c1ccc(N2CCOCC2)cc1O

IC50 [2]: 1300 nM
SMILES: Oc1ccc2nc(-c3ccccc3)nc(N3CCOCC3)c2c1

IC50 [4]: 23 nM
SMILES: CNC(=O)Nc1ccc(-c2nc(N3CCOCC3)nc3c2cnn3C2CCOCC2)cc1

IC50 [4]: 3 nM | bioavailability [5]: 88.6% | IC50 [6]: 10 nM
SMILES: CCn1nnc2c(N3CCOCC3)nc(-c3ccc(NC(=O)Nc4ccc(C(=O)N5CCN(C)CC5)cc4)cc3)nc21

half-life [7]: 3.5 h
SMILES: CN(C)C1CCN(C(=O)c2ccc(NC(=O)Nc3ccc(-c4nc(N5CCOCC5)nc(N5CCOCC5)n4)cc3)cc2)CC1 [GEDATOLISIB]

IC50 [8]: 2500 nM | IC50 [9]: 1600 nM
SMILES: O=c1cc(N2CCOCC2)oc2c(-c3ccccc3)cccc12 [LY-294002]

IC50 [10]: 83 nM
SMILES: Oc1cccc(-c2nc(N3CCOCC3)c3oc4ncccc4c3n2)c1 [PI-103]

bioavailability [11]: 100% | half-life [12]: 10 h
SMILES: Cc1nc2c(-c3cnc(N)nc3)nc(N3CCOCC3)nc2n1C(C)C [VS-5584]
